# According to patent publication US12544364B2, “Use of a phosphodiesterase 10 inhibitor for the treatment of tourette syndrome” (Noema Pharma AG, priority 2020, dated 2026):
# How the values were obtained:
# Type in all cases: physicochemical
# [1] = Stability in suspension vehicle and parenteral formulation; details: 0.5% HPC/1% Tween 80, up to 5 weeks at RT
# Procedure: For parenteral administration, a 30% Kleptose formulation (1.5 mg/ml, physiologic osmolality, pH 6.2), with a stability of at least 4 weeks at 40° C. was developed.
# [2] = Preliminary solid state stability, UPLC analysis after storage
# Procedure: (§1) Stability: Preliminary forced degradation study of the crystalline form of the free base of the compound of Formula I in acidic, basic, oxidative, and photolytic stress conditions was conducted to investigate the viability of the crystalline form in various stress conditions. Since the solubility of the compound of Formula I was low in the standard solvent ethanol, ethanol was replaced by N-methyl-2-pyrrolidone (NMP).
# A defined amount of the crystalline form of the free base of the compound of Formula I (0.2-0.8 mg) was weighed into a 1.8 mL HPLC vial and stored open (75% RH) or closed (ambient) at the temperature and the time indicated. After incubation, compound was dissolved in 1-1.5 mL NMP to a final concentration of 0.2-0.5 mg/mL and submitted to UPLC analysis (254 nm).
# [3] = Preliminary forced degradation study (acidic, basic, oxidative, photolytic stress) and excipient compatibility
# Procedure: as §1
# The crystalline form of the free base of the compound of Formula I was stable for up to 8 days in solid state at 80° C. and in solution at pH 3 to pH 7 at RT. […] The crystalline form was stable after exposure to light in solid state.
# [4] = Solubility of the crystalline form in aqueous media, simulated fluids and organic solvents; details: in the presence of surfactants (e.g., Tween-80, sodium dodecyl sulfate, dioctyl sulfosuccinate, Pluronic F68) and cyclodextrins
# Procedure: Solubility in simulated gastric fluid (SGF), fasted state simulated intestinal fluid (FaSSIF), and fed state simulated intestinal fluid (FeSSIF) was 0.019 mg/ml, 0.006 mg/mL, and 0.022 mg/mL, respectively. Solubility increased 50-100-fold in the presence of surfactants (e.g., Tween-80, sodium dodecyl sulfate, dioctyl sulfosuccinate, or Pluronic F68) and cyclodextrins; however it was still rather low.
# [5] = Thermodynamic stability of the crystalline form; details: at least between 20° C. and 60° C.
# Source text: The XRPD pattern can be obtained by following protocols known in the field.
smiles,measurement,setting,value
"Cn1ncc(C(=O)N2CCOCC2)c1C(=O)Nc1ccn2nc(-c3ccccc3)nc2c1 [1-methyl-4-(morpholine-4-carbonyl)-N-(2-phenyl[1,2,4]triazolo[1,5-a]pyridin-7-yl)-1H-pyrazole-5-carboxamide]",Particle growth and hydrate formation in suspension vehicle,[1],only minor particle growth and no hydrate formation
same,Stability in suspension vehicle,[1],stable
same,Degradation products,[2]; solid state at various temperatures,< 0.5%
same,UPLC analysis (Area % main peak),"[2]; solid state, 4 w, 4° C.",100 Area %
same,UPLC analysis (Area % main peak),"[2]; solid state, 4 w, 40° C.",100 Area %
same,UPLC analysis (Area % main peak),"[2]; solid state, 4 w, 40° C., 75% RH",100 Area %
same,UPLC analysis (Area % main peak),"[2]; solid state, 4 w, 60° C.",100 Area %
same,UPLC analysis (Area % main peak),"[2]; solid state, 4 w, RT",100 Area %
same,Time stable in solid state,"[2]; solid state, 40-60° C.",at least 4 weeks
same,UPLC analysis (Area % main peak),"[2]; solid state, 1 h, 80° C.",100 Area %
same,UPLC analysis (Area % main peak),"[2]; solid state, 1 d, 80° C.",100 Area %
same,UPLC analysis (Area % main peak),"[2]; solid state, 8 d, 80° C.",100 Area %
same,Excipient compatibility (CompaS assay),[3],compatible with almost all excipients
same,Stability towards oxidation,[3]; 1 day,stable
same,Stability towards daylight,[3]; in solution,stable
same,Stability in solution,"[3]; in solution at pH 3 to pH 7 at RT, up to 8 days",stable
same,Stability in solution at higher or lower pH,"[3]; in solution, pH higher than 7 or lower than 3",degradation was observed
same,Stability in the Suntest,"[3]; in solution, time dependent",moderately stable to unstable
same,Stability towards oxidation,[3]; prolonged exposure,some sensitivity
same,Stability after exposure to light,[3]; solid state,stable
same,Stability in solid state,"[3]; solid state at 80° C., up to 8 days",stable
same,Solubility increase,[4],50-100 fold
same,Thermodynamic stability,[5],thermodynamically stable
